Measurements taken from US7371773B2, “Breast cancer resistance protein (BCRP) inhibitor” (Kabushiki Kaisha Yakult Honsha, priority 2003, dated 2008).
In brackets after ≈: the same amount, converted by molar mass. Read-outs that look alike come from different tables or passages of the source.

What was measured:
Format in all cases: cell-based, human
A549 cell line = experiment: Anticancer drug sensitivity test, A549 cell line; settings: culturing 48 hours
Method: (§1) The A549 cell line or each of the A549/SN-38-1 to 6 was suspended in 10% FBS/Ham's F-12, and the resultant suspension was inoculated into a 96-well microplate, followed by culturing at 5% CO2 and 37° C. overnight. Thereafter, a solution of an anticancer drug in 10% FBS/Ham's F-12 (50 μL) was added to each of the wells, followed by culturing at 5% CO2 and 37° C. for 48 hours. After completion of culturing, the number of viable cells was counted by use of a viable cell counting reagent [TetraColor ONE (trade name), product of Seikagaku Corporation] according to the attached instruction manual. […] “Relative resistance value” is obtained by dividing the IC50 for an A549/SN-38 cell line by the IC50 for the A549 cell line. The greater the relative resistance value, the higher the level of acquired resistance.

A549/SN-38-1 cell line = experiment: Anticancer drug sensitivity test, A549/SN-38-1; settings: for IC50: A549/SN-38-1, culturing 48 hours; for Relative resistance value: IC50 for A549/SN-38-1 divided by IC50 for A549
Method: (§2) Human non-small cell lung cancer A549 cell line was subcultured at 5% CO2 and 37° C. by use of a Ham's F-12 medium containing 10% FBS, 100 U/mL of penicillin, and 100 μg/mL of streptomycin (10% FBS/Ham's F-12). SN-38-resistant A549 cell lines were selected by subculturing the A549 cell line in a medium for two months while the concentration of SN-38 contained in the medium was increased in a stepwise manner (4 to 10 ng/mL). Subsequently, the resultant SN-38-resistant A549 cell lines were subjected to cloning by means of limiting dilution, to thereby establish six cloned SN-38-resistant A549 cell lines (A549/SN-38-1 to 6).
as §1

A549/SN-38-2 cell line = experiment: Anticancer drug sensitivity test, A549/SN-38-2; settings: for IC50: A549/SN-38-2, culturing 48 hours; for Relative resistance value: IC50 for A549/SN-38-2 divided by IC50 for A549
Method: as §2, §1

A549/SN-38-3 cell line = experiment: Anticancer drug sensitivity test, A549/SN-38-3; settings: for IC50: A549/SN-38-3, culturing 48 hours; for Relative resistance value: IC50 for A549/SN-38-3 divided by IC50 for A549
Method: as §2, §1

A549/SN-38-4 cell line [1] = experiment: Anticancer drug sensitivity test, A549/SN-38-4; settings: for IC50: A549/SN-38-4, culturing 48 hours; for Relative resistance value: IC50 for A549/SN-38-4 divided by IC50 for A549
Method: as §2, §1

A549/SN-38-5 cell line = experiment: Anticancer drug sensitivity test, A549/SN-38-5; settings: for IC50: A549/SN-38-5, culturing 48 hours; for Relative resistance value: IC50 for A549/SN-38-5 divided by IC50 for A549
Method: as §2, §1

A549/SN-38-6 cell line = experiment: Anticancer drug sensitivity test, A549/SN-38-6; settings: for IC50: A549/SN-38-6, culturing 48 hours; for Relative resistance value: IC50 for A549/SN-38-6 divided by IC50 for A549
Method: as §2, §1

A549/SN-38 cell lines = experiment: Anticancer drug sensitivity test, A549/SN-38 cell lines as a group; settings: BCRP substrates
A549/SN-38-4 cell line [2] = experiment: Amount of anticancer drug accumulated in A549/SN-38 cell line; settings: SN-38 300 ng/mL, 37° C., 60 minutes

| SMILES | IC50 (A549 cell line; Homo sapiens, read-out: IC50) [µg/mL] | IC50 (A549/SN-38-1 cell line; Homo sapiens, read-out: IC50) [µg/mL] | Relative resistance value (A549/SN-38-1 cell line) | IC50 (A549/SN-38-2 cell line; Homo sapiens, read-out: IC50) [µg/mL] | Relative resistance value (A549/SN-38-2 cell line) | IC50 (A549/SN-38-3 cell line; Homo sapiens, read-out: IC50) [µg/mL] | Relative resistance value (A549/SN-38-3 cell line) | IC50 (A549/SN-38-4 cell line [1]; Homo sapiens, read-out: IC50) [µg/mL] | Relative resistance value (A549/SN-38-4 cell line [1]) | IC50 (A549/SN-38-5 cell line; Homo sapiens, read-out: IC50) [µg/mL] | Relative resistance value (A549/SN-38-5 cell line) | IC50 (A549/SN-38-6 cell line; Homo sapiens, read-out: IC50) [µg/mL] | Relative resistance value (A549/SN-38-6 cell line) | IC50 (A549 cell line) [µg/mL] | IC50 (A549/SN-38-1 cell line) [µg/mL] | IC50 (A549/SN-38-2 cell line) [µg/mL] | IC50 (A549/SN-38-3 cell line) [µg/mL] | IC50 (A549/SN-38-4 cell line [1]) [µg/mL] | IC50 (A549/SN-38-5 cell line) [µg/mL] | IC50 (A549/SN-38-6 cell line) [µg/mL] | other results |
| --- | --- | --- | --- | --- | --- | --- | --- | --- | --- | --- | --- | --- | --- | --- | --- | --- | --- | --- | --- | --- | --- |
| Nc1ccn([C@@H]2O[C@H](CO)[C@@H](O)C2(F)F)c(=O)n1 [Gemcitabine] | 0.009 (≈ 0.0342 µM) | 0.0039 (≈ 0.0148 µM) | (0.4) | 0.0053 (≈ 0.0201 µM) | (0.6) | 0.004 (≈ 0.0152 µM) | (0.4) | 0.0032 (≈ 0.0122 µM) | (0.4) | 0.004 (≈ 0.0152 µM) | (0.4) | 0.004 (≈ 0.0152 µM) | (0.4) |  |  |  |  |  |  |  |  |
| O=C1c2c(O)ccc(O)c2C(=O)c2c(NCCNCCO)ccc(NCCNCCO)c21 [mitoxantrone] |  |  |  |  |  |  |  |  |  |  |  |  |  |  |  |  |  |  |  |  | Resistance of A549/SN-38 cell lines to the anticancer drug (A549/SN-38 cell lines): particularly strong resistance |
| N.N.[Cl][Pt][Cl] [Cisplatin] |  |  | (0.8) |  | (0.9) |  | (0.8) |  | (0.9) |  | (0.9) |  | (0.9) | 18.6 | 15.1 | 16.5 | 15.1 | 17.0 | 15.9 | 16.8 |  |
| COc1cccc2c1C(=O)c1c(O)c3c(c(O)c1C2=O)C[C@@](O)(C(=O)CO)C[C@@H]3O[C@H]1C[C@H](N)[C@H](O)[C@H](C)O1 [Doxorubicin] | 0.1 (≈ 0.184 µM) | 0.19 (≈ 0.35 µM) | (1.9) | 0.14 (≈ 0.258 µM) | (1.4) | 0.12 (≈ 0.221 µM) | (1.3) | 0.22 (≈ 0.405 µM) | (2.3) | 0.057 (≈ 0.105 µM) | (0.6) | 0.049 (≈ 0.0902 µM) | (0.5) |  |  |  |  |  |  |  |  |
| O=c1[nH]cc(F)c(=O)[nH]1 [5-Fluorouracil] | 2.1 (≈ 16.1 µM) | 4.3 (≈ 33.1 µM) | (2.0) | 1.3 (≈ 9.99 µM) | (0.6) | 0.69 (≈ 5.3 µM) | (0.3) | 0.91 (≈ 7 µM) | (0.4) | 1.7 (≈ 13.1 µM) | (0.8) | 1 (≈ 7.69 µM) | (0.5) |  |  |  |  |  |  |  |  |
| CC(=O)O[C@H]1C(=O)[C@@]2(C)[C@H]([C@H](OC(=O)c3ccccc3)[C@]3(O)C[C@H](OC(=O)[C@H](O)[C@@H](NC(=O)c4ccccc4)c4ccccc4)C(C)=C1C3(C)C)[C@]1(OC(C)=O)CO[C@@H]1C[C@@H]2O [Paclitaxel] | 0.0049 (≈ 0.00574 µM) | 0.0098 (≈ 0.0115 µM) | (2.0) | 0.012 (≈ 0.0141 µM) | (2.4) | 0.013 (≈ 0.0152 µM) | (2.7) | 0.014 (≈ 0.0164 µM) | (2.8) | 0.0061 (≈ 0.00714 µM) | (1.2) | 0.0071 (≈ 0.00831 µM) | (1.4) |  |  |  |  |  |  |  |  |
| COc1cc([C@@H]2c3cc4c(cc3[C@@H](O[C@@H]3O[C@@H]5CO[C@@H](C)O[C@H]5[C@H](O)[C@H]3O)[C@H]3COC(=O)[C@H]23)OCO4)cc(OC)c1O [Etoposide] | 0.9 (≈ 1.53 µM) | 0.27 (≈ 0.459 µM) | (0.3) | 0.8 (≈ 1.36 µM) | (1.0) | 1.6 (≈ 2.72 µM) | (1.9) | 3.5 (≈ 5.95 µM) | (4.0) | 2.3 (≈ 3.91 µM) | (2.7) | 1 (≈ 1.7 µM) | (1.1) |  |  |  |  |  |  |  |  |
| CO[C@@]12[C@H](COC(N)=O)C3=C(C(=O)C(C)=C(N)C3=O)N1C[C@@H]1N[C@@H]12 [Mitomycin C] |  |  | (1.2) |  | (1.1) |  | (0.3) |  | (1.4) |  | (1.0) |  | (0.4) | 0.11 (≈ 0.329 µM) | 0.13 (≈ 0.389 µM) | 0.11 (≈ 0.329 µM) | 0.0029 (≈ 0.00867 µM) | 0.15 (≈ 0.449 µM) | 0.11 (≈ 0.329 µM) | 0.047 (≈ 0.141 µM) |  |
| CCc1c2c(nc3ccc(O)cc13)-c1cc3c(c(=O)n1C2)COC(=O)[C@]3(O)CC [SN-38, 7-ethyl-10-hydroxycamptothecin] |  |  | (9.2) |  | (7.5) |  | (9.7) |  | (7.7) |  | (7.7) |  | (7.4) | 0.013 (≈ 0.0331 µM) | 0.12 (≈ 0.306 µM) | 0.10 (≈ 0.255 µM) | 0.13 (≈ 0.331 µM) | 0.10 (≈ 0.255 µM) | 0.10 (≈ 0.255 µM) | 0.10 (≈ 0.255 µM) | Resistance of A549/SN-38 cell lines to the anticancer drug (A549/SN-38 cell lines): particularly strong resistance; Amount of SN-38 accumulated in A549/SN-38-4 relative to A549 cell line (A549/SN-38-4 cell line [2]): about ⅕ |
